Assays:
[1] = target: Human immunodeficiency virus type 1 protease (Human immunodeficiency virus 1, UniProt Q72874); test: Ability to inhibit purified recombinant HIV-1 protease.
Cathepsin D = Cathepsin D (Homo sapiens, UniProt P07339); test: Ability to inhibit the human Native cathepsin D aspartic protease enzyme
[2] = In vitro toxic concentration against HIV-1 IIIb H9-infected cells; type: cell-based; conditions: human, HIV-1 IIIb-infected H9 cells; read-out: TC50 (the source's name)
Renin = target: T1, Renin (Homo sapiens, UniProt P00797); test: Ability to inhibit the human recombinant renin aspartic protease enzyme
T1 sequence (P00797 whole entry): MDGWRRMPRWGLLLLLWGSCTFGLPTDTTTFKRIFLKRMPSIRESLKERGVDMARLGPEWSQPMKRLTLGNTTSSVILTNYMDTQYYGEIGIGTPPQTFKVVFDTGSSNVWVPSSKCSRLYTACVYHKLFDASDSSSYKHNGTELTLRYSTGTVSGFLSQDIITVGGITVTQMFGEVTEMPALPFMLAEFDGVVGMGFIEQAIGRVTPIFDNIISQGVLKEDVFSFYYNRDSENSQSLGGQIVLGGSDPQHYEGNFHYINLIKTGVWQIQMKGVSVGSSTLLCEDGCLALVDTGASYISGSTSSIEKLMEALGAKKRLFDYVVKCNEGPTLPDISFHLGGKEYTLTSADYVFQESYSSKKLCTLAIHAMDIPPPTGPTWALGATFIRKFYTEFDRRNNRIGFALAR

Cathepsin E = target: T2, Cathepsin E (Homo sapiens, UniProt P14091); test: Ability to inhibit the human Native cathepsin E aspartic protease enzyme
T2 sequence (P14091 whole entry): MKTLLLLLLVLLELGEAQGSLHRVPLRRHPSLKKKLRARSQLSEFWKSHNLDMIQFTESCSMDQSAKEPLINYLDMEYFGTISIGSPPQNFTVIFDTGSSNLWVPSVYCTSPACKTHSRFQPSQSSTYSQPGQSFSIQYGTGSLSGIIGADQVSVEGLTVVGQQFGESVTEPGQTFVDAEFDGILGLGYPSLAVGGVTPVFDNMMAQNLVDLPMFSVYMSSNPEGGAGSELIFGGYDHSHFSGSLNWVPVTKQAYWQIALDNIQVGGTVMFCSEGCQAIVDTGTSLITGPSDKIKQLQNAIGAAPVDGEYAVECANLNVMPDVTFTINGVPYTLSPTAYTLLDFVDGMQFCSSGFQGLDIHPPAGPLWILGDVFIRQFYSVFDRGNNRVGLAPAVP

Chain of Cathepsin D (P07339 65-162 limits assumed): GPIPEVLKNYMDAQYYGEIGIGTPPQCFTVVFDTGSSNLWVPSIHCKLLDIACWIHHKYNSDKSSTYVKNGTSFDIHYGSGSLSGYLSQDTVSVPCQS
Chain of Cathepsin D (P07339 169-412 limits assumed): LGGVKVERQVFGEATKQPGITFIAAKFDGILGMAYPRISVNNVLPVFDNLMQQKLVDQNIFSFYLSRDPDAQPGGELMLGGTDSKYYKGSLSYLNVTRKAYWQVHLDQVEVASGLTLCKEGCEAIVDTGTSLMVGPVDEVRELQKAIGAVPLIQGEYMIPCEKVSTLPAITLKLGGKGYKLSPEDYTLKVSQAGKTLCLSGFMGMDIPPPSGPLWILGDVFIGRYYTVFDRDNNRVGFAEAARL

Row | SMILES | IC50 [1] | CC50 [2] | further results
1 | O=c1cc(-c2ccccc2)oc(O)c1C(CC1CC1)SC1CCCC1 (stereo unspecified) |  |  | Ki [1]: 0.069 nM
2 | CC(C)CC(SC1CCCC1)c1c(O)cc(-c2ccccc2)oc1=O (stereo unspecified) | 58 nM | 28000 nM | IC50 (Cathepsin D): > 40000 nM; IC50 (Renin): > 10000 nM; IC50 (Cathepsin E): > 40000 nM
3 | CC(C)CC(Sc1ccccc1)c1c(O)cc(-c2ccccc2)oc1=O (stereo unspecified) | 410 nM |  | 
4 | CC(C)(C)CC(SC1CCCCC1)c1c(O)cc(-c2ccccc2)oc1=O (stereo unspecified) | 300 nM |  | 
5 | CC(C)CCC(Sc1ccccc1)c1c(O)cc(-c2ccccc2)oc1=O (stereo unspecified) | 390 nM |  | 
6 | CC(C)CC(SCc1ccccc1)c1c(O)cc(-c2ccccc2)oc1=O (stereo unspecified) | 260 nM | 67000 nM | 
7 | O=c1cc(-c2ccccc2)oc(O)c1C(SCc1ccccc1)c1ccccc1 (stereo unspecified) | 480 nM | 61000 nM | 
8 | CC(C)CC(SCC1CCCCC1)c1c(O)cc(-c2ccccc2)oc1=O (stereo unspecified) | 848 nM |  | 
9 | CC(C)CC(SC1CCCCC1)c1c(O)cc(-c2ccccc2)oc1=O (stereo unspecified) | 320 nM |  | 

Continued, in another order:

Row | IC50 [1] | SMILES | CC50 [2] | further results
10 | 541 nM | O=c1cc(-c2ccccc2)oc(O)c1C(CC1CCCC1)SC1CCCCC1 (stereo unspecified) |  | 
11 | 84 nM | O=c1cc(-c2ccccc2)oc(O)c1C(CC1CC1)SCc1ccccc1 (stereo unspecified) | 68000 nM | IC50 (Cathepsin D): > 40000 nM; IC50 (Renin): > 10000 nM; IC50 (Cathepsin E): > 40000 nM
12 | 2450 nM | O=c1cc(-c2ccccc2)oc(O)c1C(Sc1ccc2ccccc2c1)c1ccccc1 (stereo unspecified) |  | 
13 | 780 nM | O=c1cc(-c2ccccc2)oc(O)c1C(Sc1ccccc1)c1ccccc1 (stereo unspecified) |  | 
14 | 2440 nM | O=c1cc(-c2ccccc2)oc(O)c1C(Sc1ccccc1)C1CCCCC1 (stereo unspecified) |  | 
15 | 147 nM | O=c1cc(-c2ccccc2)oc(O)c1C(CC1CC1)SC1CCCCC1 (stereo unspecified) | 67000 nM | 
16 | 7820 nM | O=c1cc(-c2ccccc2)oc(O)c1C(Sc1ccccc1)c1ccc2ccccc2c1 (stereo unspecified) |  | 
17 | 225 nM | O=c1cc(-c2ccccc2)oc(O)c1C(SC1CCCC1)C1CCCC1 (stereo unspecified) | 70000 nM | 
18 | 480 nM | O=c1cc(-c2ccccc2)oc(O)c1C(SC1CCCCC1)c1ccccc1 (stereo unspecified) |  | 
19 | 84300 nM | O=c1cc(-c2ccccc2)oc(O)c1CSc1ccccc1 |  | 

— ChEMBL document CHEMBL1128706, “Nonpeptidic potent HIV-1 protease inhibitors: (4-hydroxy-6-phenyl-2-oxo-2H- pyran-3-yl)thiomethanes that span P1-P2' subsites in a unique mode of active site binding” (J Med Chem, 1995)
